Twelve compounds from PubChem BioAssay (NCI) can be followed below.

Test systems include MDA-MB-231 breast; IGROV1 ovarian; MDA-MB-435; U251 CNS; SK-MEL-5 melanoma; CCRF-CEM leukemia; A549 NSCLC; OVCAR-4 ovarian; COLO 205 colon; MCF7 breast; SF-295 CNS; OVCAR-8 ovarian.
Common to all, as to assay: NCI anticancer screen, dose series, 48 h

Molecules are shown by their SMILES.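 How tested: cells in 96-well plates exposed to compound for 48 hours at five concentrations. TGI denotes the concentration required for complete inhibition of growth.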 Where only a bound is given, the exact number is not on record here.

`COC1OC(Cn2cc([N+](=O)[O-])nc2C)C(O)C(O)C1O` (stereo not given): the TGI in the test on MDA-MB-231 breast, in the test on IGROV1 ovarian, with MDA-MB-435, in the test on U251 CNS, with SK-MEL-5 melanoma and in the test on CCRF-CEM leukemia was more than 100 µM each time. Besides, the TGI in the test on A549 NSCLC, in the test with OVCAR-4 ovarian, in the test with COLO 205 colon, in the test on MCF7 breast and in the test on SF-295 CNS was more than 100 µM throughout.

In the case of `O=C(O)CCC(NC(=O)c1ccc(Oc2nc3ccccc3nc2-c2ccccc2)cc1)C(=O)O` (stereo not given), the TGI in the test on OVCAR-8 ovarian, in the test with MDA-MB-231 breast, in the test on IGROV1 ovarian, in the test with MDA-MB-435, in the test with U251 CNS and in the test with CCRF-CEM leukemia was more than 100 µM throughout. Further, the TGI in the test with A549 NSCLC, in the test with OVCAR-4 ovarian, with COLO 205 colon, in the test on MCF7 breast and in the test on SF-295 CNS was more than 100 µM in each case.

On to `COC(=O)CNC(=O)CSc1nnc(COc2ccc(Cl)cc2)n1-c1ccccc1`, for which the TGI is 92.9 µM in the test on OVCAR-8 ovarian; 49.1 µM in the test on MDA-MB-231 breast; 54 µM in the test on IGROV1 ovarian; 48.4 µM in the test with MDA-MB-435; more than 100 µM in the test with U251 CNS; more than 100 µM with CCRF-CEM leukemia. The TGI with A549 NSCLC, in the test with OVCAR-4 ovarian, with COLO 205 colon, in the test with MCF7 breast and in the test with SF-295 CNS was more than 100 µM each time.

In the case of `COC(=O)c1cc2c(cc1C(=O)OC)[C@@]1(C)CCCC(C)(C)C1CC2` (stereo not given in full), the TGI is 74 µM in the test with OVCAR-8 ovarian; 41.8 µM with MDA-MB-231 breast; 31.5 µM in the test with IGROV1 ovarian; more than 100 µM with MDA-MB-435; 40.4 µM with U251 CNS; 35.4 µM in the test with SK-MEL-5 melanoma. Moreover, the TGI in the test on CCRF-CEM leukemia is 42.1 µM; in the test on A549 NSCLC it was 55.9 µM; with OVCAR-4 ovarian, more than 100 µM; in the test with MCF7 breast, 32.7 µM; with SF-295 CNS, 37 µM.

`COC(=O)[C@@H]1[C@H]2CC[C@]3(C)[C@@H](OC(C)=O)CC[C@H]3[C@@H]2CC[C@H]1C(C)=O`: the TGI in the test on OVCAR-8 ovarian, in the test with MDA-MB-231 breast, in the test with IGROV1 ovarian, in the test on MDA-MB-435, in the test on U251 CNS and with SK-MEL-5 melanoma was more than 100 µM throughout. For the same compound, the TGI in the test on CCRF-CEM leukemia, in the test with A549 NSCLC, with COLO 205 colon, in the test with MCF7 breast and in the test on SF-295 CNS was more than 100 µM in each case.

Turning to `CCOC(=O)/C(=C\c1c(C)[nH]c2ccccc12)P(=O)(OCC)OCC`, the TGI in the test with OVCAR-8 ovarian, with MDA-MB-231 breast, in the test with IGROV1 ovarian, in the test on MDA-MB-435, in the test with U251 CNS and with SK-MEL-5 melanoma was more than 100 µM throughout. Further, the TGI with A549 NSCLC, in the test with OVCAR-4 ovarian, with COLO 205 colon, with MCF7 breast and in the test with SF-295 CNS was more than 100 µM throughout.

`CCOc1nc2sc3c(c2c(=O)n1CCSSCCn1c(OCC)nc2sc4c(c2c1=O)CCCC4)CCCC3`: the TGI with OVCAR-8 ovarian, with MDA-MB-231 breast, in the test on IGROV1 ovarian, with MDA-MB-435, with U251 CNS and in the test with SK-MEL-5 melanoma was more than 100 µM each time. Besides, the TGI with A549 NSCLC, with OVCAR-4 ovarian, in the test with COLO 205 colon, with MCF7 breast and in the test with SF-295 CNS was more than 100 µM throughout.

As to `N[C@H]1CCN(c2c(F)cc3c(=O)c(C(=O)O)cn4c3c2Oc2c-4ccc3c2ccc2ccccc23)C1`, the TGI in the test with OVCAR-8 ovarian is more than 100 µM; in the test on MDA-MB-231 breast, more than 100 µM; in the test on IGROV1 ovarian, more than 48.8 µM; in the test with MDA-MB-435, more than 39.6 µM; in the test with U251 CNS, 6.76 µM; in the test with SK-MEL-5 melanoma, more than 100 µM. The TGI in the test on A549 NSCLC was more than 100 µM; in the test with OVCAR-4 ovarian it was more than 33.2 µM; in the test on COLO 205 colon it was more than 100 µM; with MCF7 breast, more than 100 µM; with SF-295 CNS it was more than 100 µM.

Turning to `O=C1c2c(O)cccc2Cc2cc(CO)cc(O)c21`, the TGI in the test on OVCAR-8 ovarian is 12.8 µM; in the test with MDA-MB-231 breast, 5.67 µM; with IGROV1 ovarian it was 20.1 µM; in the test with MDA-MB-435, 15.5 µM; with U251 CNS, 10.7 µM; in the test with SK-MEL-5 melanoma, 3.75 µM. The TGI is more than 100 µM in the test with CCRF-CEM leukemia; 9.08 µM in the test on A549 NSCLC; 14.4 µM in the test with OVCAR-4 ovarian; 4.9 µM in the test with COLO 205 colon; 5.85 µM in the test on SF-295 CNS.

For `CC(C)(C)NC(=S)N/N=C/c1ccccn1`, the TGI in the test on OVCAR-8 ovarian is more than 40.7 µM; in the test on MDA-MB-231 breast it was more than 100 µM; in the test with IGROV1 ovarian it was more than 100 µM; with MDA-MB-435, more than 100 µM; with U251 CNS, more than 100 µM; with SK-MEL-5 melanoma, more than 46.4 µM. The TGI with A549 NSCLC, with OVCAR-4 ovarian, in the test with COLO 205 colon and with SF-295 CNS was more than 100 µM in each case.

For `CCN1C/C(=C\c2ccc(Cl)cc2)c2[nH]c(=O)c(C#N)c(-c3ccc(Cl)cc3)c2C1`, the TGI with MDA-MB-231 breast, in the test on IGROV1 ovarian, with MDA-MB-435, in the test on U251 CNS, in the test on SK-MEL-5 melanoma and in the test with CCRF-CEM leukemia was more than 100 µM throughout. The TGI in the test with A549 NSCLC, in the test with OVCAR-4 ovarian, with COLO 205 colon and with MCF7 breast was more than 100 µM each time.

In the case of `Nn1c(CCCCCCCCc2n[nH]c(=S)n2N)n[nH]c1=S`, the TGI in the test on OVCAR-8 ovarian, with MDA-MB-231 breast, in the test with IGROV1 ovarian, in the test with MDA-MB-435, with U251 CNS and with CCRF-CEM leukemia was more than 100 µM in each case. For the same compound, the TGI in the test with A549 NSCLC, in the test on OVCAR-4 ovarian, in the test on COLO 205 colon, with MCF7 breast and in the test on SF-295 CNS was more than 100 µM each time.
